Data reported in patent US12343316B2, “Cannabidiol and/or derivatives thereof for use in the treatment of mitochondrial diseases” (U[…] DE BARCELONA, priority 2019, dated 2025).

How the values were obtained:
Ndufs4−/− mice [1] = test: Survival of Ndufs4−/− mice (mouse model of Leigh syndrome); format: in vivo
Text: (§1) Two mouse lines were used in this study: (1) a validated mouse genetic model of MD (Kruse, S. E., et al. Cell Metab. 2008, 7: 312-320; Quintana, A., et al. Proc. Natl. Acad. Sci. USA. 2010, 107: 10996-11001), lacking Ndufs4 constitutively (Ndufs4^−/−, Ndufs4 KO) and wild-type (WT) littermates (Ndufs4^+/+) as controls, and (2) a conditional knockout mouse line lacking Ndufs4 selectively in GABAergic cells (Bolea et al. 2019 (https://elifesciences.org/articles/47163). For the latter, mice expressing cre-recombinase under the control of the Gad2 promoter (Quintana, A., et al. Nat. Neurosci. 2012, 15: 1547-1555) and one floxed Ndufs4 allele (Gad2^cre/+:Ndufs4^lox/+) were bred with mice carrying two floxed Ndufs4 alleles (Ndufs4^lox/lox). Out of all the possible offspring, Gad2^cre/+: Ndufs4^lox/lox mice bear Ndufs4 deficiency selectively in GABAergic neurons. Mice with Gad2^cre/+:Ndufs4^lox/+ genotype with one functional Ndufs4 allele as well as mice with the Gad2^cre/+:Ndufs4^lox/lox genotype were used as controls.
Ndufs4 encodes a protein involved in assembly, stability, and activity of complex I of the mitochondrial electron transport chain. Ndufs4^−/− mice display a progressive neurodegenerative phenotype, which resembles the human disease and includes retarded growth rate, weight loss, lethargy, loss of motor skills, and premature death.

Ndufs4−/− mice [2] = test: Clasping onset in Ndufs4−/− mice; format: in vivo, mouse; conditions: CBD 100 mg/kg once daily vs vehicle-treated, p<0.05
Text: as §1
Clasping behaviour was used as a sign of neurological degeneration (Johnson, S. C., et al. Science. 2013, 342: 1524-1528). Clasping consisted in an inward curling of the spine and a retraction of the forelimbs and/or hindlimbs toward the midline of the body.

Ndufs4−/− mice [3] = test: Accelerating rotarod performance in Ndufs4−/− mice; format: in vivo, mouse; conditions: Ndufs4KO mice, CBD 100 mg/kg once daily; postnatal day 30, 40, 50
Text: as §1
Rotarod was performed at postnatal day 30, 40, and 50. Mice were placed on a rotating drum that gradually accelerated from 4 rpm to 40 rpm over 300 sec. Each trial ended when a mouse fell off, made one complete backward revolution while hanging on, or reached 5-min. Each mouse was tested in 3 trials/day spaced 20 min apart. The results of the 3 trials were averaged.

Gad2:Ndufs4cKO mice [4] = test: Survival of Gad2:Ndufs4cKO mice (cell type-specific mouse model of Leigh syndrome); format: in vivo
Text: as §1
Given the early onset severe phenotype that results in death at a median age of ˜40 days in Ndufs4^−/− mice, it is difficult to study certain clinical signs that recapitulate some symptoms of the human pathology. […]

Gad2:Ndufs4cKO mice [5] = test: Three-chamber social approach test; format: in vivo, mouse; conditions: control mice, CBD 100 mg/kg twice/day
Text: as §1, with “Mice with Gad2^cre/+:Ndufs4^lox/+ genotype with one functional Ndufs4 allele as well as mice with the Gad2^cre/+:Ndufs4^lox/lox genotype were used as controls.” left out
A three-chamber arena was used to assess sociability as previously described (Puighermanal et al, Front Mol Neurosci., 2017, 10:419). […] The time spent sniffing the unfamiliar mouse and the empty wire cage was manually scored. The discrimination index for sociability was calculated as follows: (time exploring unfamiliar mouse—time exploring empty wire cage)/(total exploration time)*100. […]

[6] = rodents; cited from earlier work

C=C(C)[C@@H]1CCC(C)=C[C@H]1c1c(O)cc(CCCCC)cc1O [CBD, (−)-trans-2-p-mentha-l,8-dien-3-yl-5-pentylresorcinol]
median survival (Ndufs4−/− mice [1]; Ndufs4KO mice, CBD 100 mg/kg once/day intraperitoneal from postnatal day 24-30): 75.5 days | life span (survival) (Ndufs4−/− mice [1]; Ndufs4−/− mice, CBD 100 mg/kg once daily, log-rank p<0.0001): significantly extended the life span | appearance (onset) of clasping (Ndufs4−/− mice [2]): significantly delayed | rotarod performance (time to fall off) (Ndufs4−/− mice [3]): delayed the progressive decline | average survival time (Gad2:Ndufs4cKO mice [4]; CBD 100 mg/kg intraperitoneal twice daily from postnatal day 35-40, p<0.0001): 87 days | life span (survival) (Gad2:Ndufs4cKO mice [4]; CBD 100 mg/kg twice daily, log-rank p<0.0001): extended the life span | sociability (social interaction) (Gad2:Ndufs4cKO mice [5]): no effect | half-life [6]: ~4.5 h
